In article PMC9038752, “Molecular mechanisms of bifunctional vitamin D receptor agonist-histone deacetylase inhibitor hybrid molecules in triple-negative breast cancer” (Scientific Reports, 2022) one finds tubulin acetylation and IC50 data, which are given here for four compounds.

For orientation: IC50 means the concentration that gives 50% inhibition. A lower IC50 goes with higher potency.

In test [1] the test system is tubulin acetylation (HDAC6). The experiment in a line: Western blotting of tubulin acetylation in 4TO7 cells. Format: cell-based, mouse. The conditions noted are these: 6 h, western blot. The protocol: The hybrids were assessed to determine their HDACi and VDR agonist activity as well as their antiproliferative properties relative to DK-406. HDACi activity was assessed in vitro using an acetylated lysine substrate that releases a fluorescent reporter upon HDACi deacetylation and subsequent trypsin digestion. Increasing sidechain length of pyrimidine hybrids enhanced the potency of HDAC6 inhibition, with several compounds inhibiting HDAC6 with a sub-micromolar IC50, similar to that of DK-406 (Fig. 4a). […] Next, we analyzed the effects of compounds on levels of H3K9 and H3K27 acetylation in 4TO7 cells, which are controlled by class I HDACs[29],[30]. […] We also tested the capacity of analogues to induce tubulin acetylation, controlled by class II enzyme HDAC6[32], in 4TO7 cells. […]
Figure 4 (a) Results of in vitro assays for inhibition of purified HDAC2 and HDAC6 by DK-406 and heterocyclic hybrids as measured by inhibition of deacetylation of a fluorometric substrate (see Methods for details). […]
After treatments, 4T07 cells were solubilized in Lysis Buffer (20 mM Tris, pH 8, 150 mM NaCl, 1% Triton X-100, 3,5 mM SDS, 13 mM deoxycholic acid) and proteins extracted were separated on a 4–15% Tris/Glycine/SDS gel (BIO RAD). […] Signal was detected using Clarity ECL chemiluminescent substrates (Bio-Rad) and ChemiDoc Imaging System from the same company was used to quantify the intensity of bands. […]
A general note: Immunoblotting shows a protein as a band on a membrane.

A further test addresses T1, purified HDAC2 (Homo sapiens, UniProt Q92769).
T1 construct: purchased Cayman Chemical
The experiment in a line: Fluorogenic HDAC inhibition assay, HDAC2. Format: biochemical. Particulars: purified HDAC2, fluorometric substrate. The protocol: The hybrids were assessed to determine their HDACi and VDR agonist activity as well as their antiproliferative properties relative to DK-406. HDACi activity was assessed in vitro using an acetylated lysine substrate that releases a fluorescent reporter upon HDACi deacetylation and subsequent trypsin digestion. Increasing sidechain length of pyrimidine hybrids enhanced the potency of HDAC6 inhibition, with several compounds inhibiting HDAC6 with a sub-micromolar IC50, similar to that of DK-406 (Fig. 4a). […] Next, we analyzed the effects of compounds on levels of H3K9 and H3K27 acetylation in 4TO7 cells, which are controlled by class I HDACs[29],[30]. […] We also tested the capacity of analogues to induce tubulin acetylation, controlled by class II enzyme HDAC6[32], in 4TO7 cells. Based on their relative efficacy in cytotoxicity assays (see below, Fig. 5c,d), we used 10^–5 M DK-406 and 10^–6 M AM-193 for these studies.
Figure 4 (a) Results of in vitro assays for inhibition of purified HDAC2 and HDAC6 by DK-406 and heterocyclic hybrids as measured by inhibition of deacetylation of a fluorometric substrate (see Methods for details). (b–d) Left: Western blotting analysis of histone 3 lysine 9 (H3K9; b), H3K27 (c), or acetylated tubulin (d), levels in 4TO7 cells treated with ligands for 6 h. Representative western-blots are shown from at least 3 biological replicates. Right: Graphs representing the average of the replicates, bars are mean ± SD. Each condition was compared to control. *: p ≤ 0.05, **: p ≤ 0.01, ***: p ≤ 0.001, ****: p ≤ 0.0001, ns: not significant. TEXT PRINTED IN THE PICTURE: (a) DK-406: HDAC6 IC50 (μM): 0.6; HDAC2 IC50 (μM): 0.5 | (a) AM-155: HDAC6 IC50 (μM): 2.8; HDAC2 IC50 (μM): 1.7 | (a) AM-171: HDAC6 IC50 (μM): 0.5; HDAC2 IC50 (μM): 9.6 | (a) AM-172: HDAC6 IC50 (μM): 0.3; HDAC2 IC50 (μM): 7.7 | (a) AM-191: HDAC6 IC50 (μM): 1.9; HDAC2 IC50 (μM): 8.1 | (a) AM-192: HDAC6 IC50 (μM): 0.5; HDAC2 IC50 (μM): 6.5 | (a) AM-193: HDAC6 IC50 (μM): 0.3; HDAC2 IC50 (μM): 7.2
Purified HDAC2 and HDAC6 were purchased from Cayman Chemical. Boc-Lys(Ac)-7-amino-4-methylcoumarin (BocLys(Ac)-AMC) was used as substrate for the HDAC assays. Substrate solution was prepared as follow: Boc(Lys-Ac)-AMC was dissolved in DMSO and diluted with HDAC buffer (15 mM tris–HCl [pH 8.1], 250 μM EDTA, 250 mM NaCl, 10% glycerol) to give 1 mM solutions containing 1.7% DMSO. Trypsin was used to stop the reaction, releasing free AMC. The trypsin solution was prepared as follow: trypsin was dissolved in HDAC buffer to give a concentration of 10 mg/mL. Release of AMC was monitored by measuring the fluorescence at 460 nm (lex = 390 nm) with a microplate reader (SpectraMax Gemini from Molecular Devices) at 37 °C. The AMC signals were recorded against a blank with buffer, substrate and trypsin but without the enzyme. All experiments were carried out at least in triplicate.
For HDAC inhibition assays, inhibitor diluted in 50 μL of HDAC buffer was mixed with 10 μL of diluted enzyme solution in HDAC buffer at room temperature. The HDAC reaction was started by adding 40 μL of substrate solution in HDAC buffer followed by 60 min of incubation with stirring at 37 °C. The reaction was stopped by adding 100 μL of trypsin solution. After a 30 min incubation with stirring at 37 °C, the release of AMC was monitored by measuring the fluorescence.

T1 sequence (Q92769 whole entry): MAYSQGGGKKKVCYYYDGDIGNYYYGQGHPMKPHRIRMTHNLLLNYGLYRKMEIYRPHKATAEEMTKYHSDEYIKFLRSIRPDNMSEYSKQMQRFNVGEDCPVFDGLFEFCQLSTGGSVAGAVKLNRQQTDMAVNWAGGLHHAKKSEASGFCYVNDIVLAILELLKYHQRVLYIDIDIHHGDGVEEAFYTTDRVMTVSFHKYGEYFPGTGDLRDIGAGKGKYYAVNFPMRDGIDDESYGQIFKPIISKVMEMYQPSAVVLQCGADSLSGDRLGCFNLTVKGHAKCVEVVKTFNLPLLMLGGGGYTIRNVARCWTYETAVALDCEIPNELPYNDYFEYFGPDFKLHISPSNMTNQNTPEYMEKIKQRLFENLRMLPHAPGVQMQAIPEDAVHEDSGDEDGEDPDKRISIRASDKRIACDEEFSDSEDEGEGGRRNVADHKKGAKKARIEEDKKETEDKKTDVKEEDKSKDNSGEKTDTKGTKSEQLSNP

As for `CCC(CC)(c1ccc(OCCCCCC(=O)NO)cc1)c1ccc(OCC(O)C(C)(C)C)c(C)n1` (stereo not drawn) [AM-193], the tubulin acetylation entry in test [1] (10^–6 M) is given as “consistently induced tubulin acetylation”. Also, half-maximal inhibition against purified HDAC2 (IC50) was put at 7.2 µM.

As to `CCC(CC)(c1ccc(OCC(O)C(C)(C)C)c(C)c1)c1ccc(OCC(=O)NO)cn1` (stereo not drawn) [AM-155], the midpoint of inhibition on purified HDAC2, the IC50, lay at 1.7 µM.

Consider `CCC(CC)(c1ccc(C(=O)NCCCCCC(=O)NO)cc1)c1ccc(OCC(O)C(C)(C)C)c(C)c1` (stereo not drawn) [DK-406], for which, in test [1] (10^–5 M), the tubulin acetylation result is recorded as “consistently induced tubulin acetylation”. This compound also registered an IC50 against purified HDAC2 of 0.5 µM.

`CCC(CC)(c1ccc(OCC(O)C(C)(C)C)c(C)c1)c1ccc(OCCCC(=O)NO)cn1` (stereo not drawn) [AM-171] came in with an IC50 against purified HDAC2 of 9.6 µM.
